Measurements published in ChEMBL document CHEMBL1133242, “Selective alpha1a adrenergic receptor antagonists based on 4-aryl-3,4-dihydropyridine-2-ones” (Bioorg Med Chem Lett, 2000).

Legend:
[1] = molecular target: T1, Alpha-1A adrenergic receptor (Homo sapiens, UniProt P35348); test: In vitro antagonism at Alpha-1A adrenergic receptor; type: functional
T1 sequence (P35348 whole entry): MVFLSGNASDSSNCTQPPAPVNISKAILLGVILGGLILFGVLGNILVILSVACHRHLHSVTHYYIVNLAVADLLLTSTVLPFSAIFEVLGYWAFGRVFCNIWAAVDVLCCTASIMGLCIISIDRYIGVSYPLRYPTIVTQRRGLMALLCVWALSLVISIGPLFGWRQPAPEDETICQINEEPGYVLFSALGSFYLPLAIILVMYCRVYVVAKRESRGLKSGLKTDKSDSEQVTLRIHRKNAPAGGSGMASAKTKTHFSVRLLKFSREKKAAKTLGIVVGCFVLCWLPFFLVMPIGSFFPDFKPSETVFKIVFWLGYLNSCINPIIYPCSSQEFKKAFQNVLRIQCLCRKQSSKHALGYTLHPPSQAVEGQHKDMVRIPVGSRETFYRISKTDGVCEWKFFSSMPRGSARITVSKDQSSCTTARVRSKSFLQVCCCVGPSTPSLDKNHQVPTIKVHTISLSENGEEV

[2] = molecular target: T2, Alpha-1D adrenergic receptor (Homo sapiens, UniProt P25100); test: In vitro antagonism at Alpha-1D adrenergic receptor; type: functional
T2 sequence (P25100 whole entry): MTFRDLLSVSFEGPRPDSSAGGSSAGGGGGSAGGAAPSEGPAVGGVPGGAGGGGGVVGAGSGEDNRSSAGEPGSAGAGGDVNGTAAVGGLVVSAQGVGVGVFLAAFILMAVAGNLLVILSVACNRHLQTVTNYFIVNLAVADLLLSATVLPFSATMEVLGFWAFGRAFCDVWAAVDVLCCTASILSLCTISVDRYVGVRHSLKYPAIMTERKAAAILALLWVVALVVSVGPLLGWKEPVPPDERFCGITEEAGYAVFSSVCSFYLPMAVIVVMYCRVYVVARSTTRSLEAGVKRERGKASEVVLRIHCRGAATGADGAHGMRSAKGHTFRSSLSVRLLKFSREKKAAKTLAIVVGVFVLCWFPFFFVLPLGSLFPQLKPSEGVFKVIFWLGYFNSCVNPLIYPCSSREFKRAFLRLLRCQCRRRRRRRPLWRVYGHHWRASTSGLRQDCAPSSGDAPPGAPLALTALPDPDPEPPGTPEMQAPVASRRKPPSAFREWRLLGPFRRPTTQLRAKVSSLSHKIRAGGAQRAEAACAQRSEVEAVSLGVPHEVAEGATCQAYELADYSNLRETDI

[3] = molecular target: T3, Alpha-1B adrenergic receptor (Homo sapiens, UniProt P35368); test: In vitro antagonism at Alpha-1B adrenergic receptor; type: functional
T3 sequence (P35368 whole entry): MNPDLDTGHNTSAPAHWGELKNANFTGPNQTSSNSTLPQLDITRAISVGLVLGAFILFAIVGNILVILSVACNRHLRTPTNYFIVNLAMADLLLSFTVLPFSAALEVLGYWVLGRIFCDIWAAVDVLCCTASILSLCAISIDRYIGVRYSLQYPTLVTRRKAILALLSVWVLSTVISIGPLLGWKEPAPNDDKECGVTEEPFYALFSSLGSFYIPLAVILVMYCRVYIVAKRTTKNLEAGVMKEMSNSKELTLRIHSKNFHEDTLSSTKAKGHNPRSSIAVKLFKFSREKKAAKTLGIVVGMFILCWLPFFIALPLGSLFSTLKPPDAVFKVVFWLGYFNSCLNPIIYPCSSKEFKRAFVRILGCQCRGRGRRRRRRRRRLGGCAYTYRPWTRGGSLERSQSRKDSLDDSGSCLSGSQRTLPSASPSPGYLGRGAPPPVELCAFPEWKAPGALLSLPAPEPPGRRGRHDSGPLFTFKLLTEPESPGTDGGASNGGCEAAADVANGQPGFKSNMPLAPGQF

[4] = molecular target: Histamine H1 receptor (Homo sapiens, UniProt P35367); test: Selectivity screen against human Histamine H1 receptor
[5] = molecular target: T4, Alpha-2B adrenergic receptor (Homo sapiens, UniProt P18089); test: […] inhibitory effect against alpha-2b Adrenergic receptor
T4 sequence (P18089 whole entry): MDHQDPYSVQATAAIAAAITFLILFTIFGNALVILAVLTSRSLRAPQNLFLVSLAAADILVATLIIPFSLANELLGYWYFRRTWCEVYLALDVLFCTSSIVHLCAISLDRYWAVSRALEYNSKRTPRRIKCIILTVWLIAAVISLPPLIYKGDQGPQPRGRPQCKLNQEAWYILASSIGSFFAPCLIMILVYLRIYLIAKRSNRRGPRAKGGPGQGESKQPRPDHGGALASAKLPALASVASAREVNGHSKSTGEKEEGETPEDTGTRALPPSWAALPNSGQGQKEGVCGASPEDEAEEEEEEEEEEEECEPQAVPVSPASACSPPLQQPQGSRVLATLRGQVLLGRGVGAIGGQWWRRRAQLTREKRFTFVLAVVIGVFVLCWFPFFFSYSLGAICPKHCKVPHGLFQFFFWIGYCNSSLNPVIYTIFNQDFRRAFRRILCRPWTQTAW

[6] = t1/2 value in rat; type: ADME, organism-based; conditions: in vivo
[7] = species: Rattus norvegicus; test: Dose required to inhibit the prostate contractile response by 50% after challenge with selective alpha-1a agonist A61603 and duration of action was 4 hr in an in situ rat prostate model; type: functional, Prostate gland
[8] = molecular target: T5, Alpha-2A adrenergic receptor (Homo sapiens, UniProt P08913); test: […] inhibitory effect against Alpha-2A adrenergic receptor
T5 sequence (P08913 whole entry): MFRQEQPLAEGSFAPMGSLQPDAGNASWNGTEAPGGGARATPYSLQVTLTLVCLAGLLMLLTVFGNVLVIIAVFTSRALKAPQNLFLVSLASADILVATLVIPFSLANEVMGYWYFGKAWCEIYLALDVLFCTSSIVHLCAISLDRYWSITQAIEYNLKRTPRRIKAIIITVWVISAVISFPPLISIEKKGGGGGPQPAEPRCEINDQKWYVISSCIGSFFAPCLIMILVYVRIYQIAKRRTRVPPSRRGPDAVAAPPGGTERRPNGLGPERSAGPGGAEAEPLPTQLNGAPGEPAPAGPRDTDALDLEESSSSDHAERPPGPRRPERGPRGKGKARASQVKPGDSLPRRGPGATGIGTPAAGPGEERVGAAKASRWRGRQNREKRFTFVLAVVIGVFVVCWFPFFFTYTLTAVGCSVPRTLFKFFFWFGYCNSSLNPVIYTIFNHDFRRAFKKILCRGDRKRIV

[9] = molecular target: T6, Alpha-2C adrenergic receptor (Homo sapiens, UniProt P18825); test: […] inhibitory effect against Alpha-2C adrenergic receptor
T6 sequence (P18825 whole entry): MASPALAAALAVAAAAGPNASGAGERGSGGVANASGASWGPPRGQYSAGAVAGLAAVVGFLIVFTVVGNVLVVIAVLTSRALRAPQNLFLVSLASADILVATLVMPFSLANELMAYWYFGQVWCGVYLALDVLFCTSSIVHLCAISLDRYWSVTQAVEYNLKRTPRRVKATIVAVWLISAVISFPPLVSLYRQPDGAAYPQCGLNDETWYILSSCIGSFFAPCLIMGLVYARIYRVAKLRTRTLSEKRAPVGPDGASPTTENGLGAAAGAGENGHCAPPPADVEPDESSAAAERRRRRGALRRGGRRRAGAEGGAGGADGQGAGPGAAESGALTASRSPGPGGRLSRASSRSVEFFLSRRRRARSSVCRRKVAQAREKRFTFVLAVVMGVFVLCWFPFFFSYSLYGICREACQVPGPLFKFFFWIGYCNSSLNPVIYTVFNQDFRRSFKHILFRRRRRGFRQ

[10] = species: Rattus norvegicus; test: Dose required to inhibit the prostate contractile response by 50% after challenge with selective alpha-1a agonist A61603 in an in situ rat prostate model; type: functional, Prostate gland
[11] = species: Rattus norvegicus; test: Dose required to inhibit the prostate contractile response by 50% after challenge with selective alpha-1a agonist A61603 and duration of action was 1 hr in an in situ rat prostate model; type: functional, Prostate gland
[12] = species: Rattus norvegicus; test: Dose required to inhibit the prostate contractile response by 50% after challenge with selective alpha-1a agonist A61603 and duration of action was 2.5h in an in situ rat prostate model; type: functional, Prostate gland
[13] = Percent bioavailability in dog; type: ADME, organism-based, Canis lupus familiaris; conditions: in vivo, read-out: Bioavailabiility
[14] = species: Rattus norvegicus; test: Dose required to inhibit the prostate contractile response by 50% after challenge with selective alpha-1a agonist A61603 and duration of action was 3.5h in an in situ rat prostate model; type: functional, Prostate gland

Chain of Histamine H1 receptor (P35367 whole entry): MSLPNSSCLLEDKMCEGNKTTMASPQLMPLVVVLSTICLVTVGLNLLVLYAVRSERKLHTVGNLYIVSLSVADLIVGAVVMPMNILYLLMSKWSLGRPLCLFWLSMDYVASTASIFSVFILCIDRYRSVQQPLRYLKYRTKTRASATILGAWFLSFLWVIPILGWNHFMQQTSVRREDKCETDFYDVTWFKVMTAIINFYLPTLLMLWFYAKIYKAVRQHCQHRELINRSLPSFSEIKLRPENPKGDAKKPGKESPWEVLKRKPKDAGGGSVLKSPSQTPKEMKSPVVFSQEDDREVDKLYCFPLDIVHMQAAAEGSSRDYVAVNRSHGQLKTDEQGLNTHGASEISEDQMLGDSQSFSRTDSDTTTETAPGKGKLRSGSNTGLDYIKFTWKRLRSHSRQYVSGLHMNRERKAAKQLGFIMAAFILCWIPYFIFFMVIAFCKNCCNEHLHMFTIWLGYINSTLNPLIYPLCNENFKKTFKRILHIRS

| SMILES | Ki [1] | Ki [2] | Ki [3] | Ki [4] | Ki [5] | half-life [6] | AD50 [7] | Ki [8] | Ki [9] | AD50 [10] | AD50 [11] | AD50 [12] | bioavailability [13] | AD50 [14] |
| --- | --- | --- | --- | --- | --- | --- | --- | --- | --- | --- | --- | --- | --- | --- |
| CC1=C(C(=O)NCCCN2CCC(c3ccc(F)cc3)CC2)[C@@H](c2ccc(F)c(F)c2)CC(=O)N1C | 0.7 nM | 250 nM | 54 nM | – | – | – | – | – | – | – | – | – | – | – |
| CC1=C(C(=O)NCCCN2CCC(C#N)(c3ccc(F)cc3)CC2)[C@@H](c2ccc(F)c(F)c2)CC(=O)N1 | 1.8 nM | 1050 nM | 1040 nM | 63 nM | – | – | – | – | – | – | – | – | – | – |
| CC1=C(C(=O)NCCCN2CCC(c3ccc(F)cc3C#N)CC2)[C@@H](c2ccc(F)c(F)c2)CC(=O)N1C | 0.8 nM | 590 nM | 366 nM | 398 nM | 288 nM | 1.4 h | 0.009 mg/kg | 4520 nM | 3850 nM | – | – | – | – | – |
| CC1=C(C(=O)NCCCN2CCC(C#N)(c3ccc(F)cc3)CC2)[C@@H](c2ccc(F)c(F)c2)CC(=O)N1C | 1.9 nM | 880 nM | 425 nM | 355 nM | 776 nM | – | – | 1860 nM | 1100 nM | 0.025 mg/kg | – | – | – | – |
| CC1=C(C(=O)NCCCN2CCC(C#N)(c3ccc(F)cc3F)CC2)[C@@H](c2ccc(F)c(F)c2)CC(=O)N1C | 1.1 nM | 1160 nM | 842 nM | 302 nM | 955 nM | – | – | 3390 nM | 1910 nM | – | 0.029 mg/kg | – | – | – |
| CC1=C(C(=O)NCCCN2CCC(c3ccccc3C#N)CC2)[C@@H](c2ccc(F)c(F)c2)CC(=O)N1C | 3 nM | 682 nM | 1200 nM | – | – | – | – | – | – | – | – | – | – | – |
| CC1=C(C(=O)NCCCN2CCC(C#N)(c3ccccn3)CC2)[C@@H](c2ccc(F)c(F)c2)CC(=O)N1C | – | > 5000 nM | > 2000 nM | – | – | – | – | – | – | – | – | – | – | – |
| CC1=C(C(=O)NCC(C)CN2CCC(C#N)(c3ccccn3)CC2)[C@@H](c2ccc(F)c(F)c2)CC(=O)N1 (some centres not stated) | 42 nM | > 5000 nM | > 2000 nM | – | – | – | – | – | – | – | – | – | – | – |
| CC1=C(C(=O)NCCCN2CCC(C#N)(c3ccc(F)cc3C#N)CC2)[C@@H](c2ccc(F)c(F)c2)CC(=O)N1 | 1.4 nM | > 5000 nM | > 2000 nM | 91 nM | 676 nM | – | – | 7850 nM | 4680 nM | – | – | – | – | – |
| CC1=C(C(=O)NCCCN2CCC(c3ccccc3C#N)CC2)[C@@H](c2ccc(F)c(F)c2)CC(=O)N1 | 1 nM | 330 nM | 330 nM | – | – | – | – | – | – | – | – | – | – | – |
| CC1=C(C(=O)NCCCN2CCC(c3ccc(F)cc3C#N)CC2)[C@@H](c2ccc(F)c(F)c2)CC(=O)N1 | 0.2 nM | 150 nM | 100 nM | 58 nM | 145 nM | 4.8 h | – | 1290 nM | 1480 nM | – | – | 0.005 mg/kg | 34% | – |
| CC1=C(C(=O)NCCCN2CCC(C#N)(c3ccc(F)cc3C#N)CC2)[C@@H](c2ccc(F)c(F)c2)CC(=O)N1C | 7 nM | > 5000 nM | > 2000 nM | 616 nM | 1760 nM | – | – | 13600 nM | 6530 nM | – | – | – | – | – |
| CC1=C(C(=O)NCCCN2CCC(C#N)(c3ccccc3C#N)CC2)[C@@H](c2ccc(F)c(F)c2)CC(=O)N1C | 13 nM | > 5000 nM | > 2000 nM | – | – | – | – | – | – | – | – | – | – | – |
| CC1=C(C(=O)NCCCN2CCC(c3ccc(F)cc3)CC2)[C@@H](c2ccc(F)c(F)c2)CC(=O)N1 | 0.4 nM | 200 nM | 37 nM | 19 nM | 162 nM | – | – | 229 nM | 313 nM | 0.032 mg/kg | – | – | – | – |
| CC1=C(C(=O)NCCCN2CCC(C#N)(c3ccccc3C#N)CC2)[C@@H](c2ccc(F)c(F)c2)CC(=O)N1 | 3.2 nM | > 5000 nM | > 2000 nM | – | – | – | – | – | – | – | – | – | – | – |
| CCOc1ccccc1OCCN[C@H](C)Cc1ccc(OC)c(S(N)(=O)=O)c1 [TAMSULOSIN] | – | – | – | – | – | – | – | – | – | – | – | – | – | 0.003 mg/kg |
